Paper PMC5656836, “Distinct activation mechanisms trigger the trypanocidal activity of DNA damaging prodrugs” (Molecular Microbiology, 2017)
Read-outs that look alike come from different tables or passages of the source.

How the values were obtained:
[1] = system: Wild type T. brucei; type: cell-based
[2] = system: T. brucei Tbsnm1 null mutants (ΔTbsnm1); experiment: microbe, parasite or virus in culture; type: cell-based; details: for EC50: Trypanosoma brucei, read-out: EC50 ΔTbsnm1
[3] = system: L. major promastigotes; experiment: Growth inhibition of L. major promastigotes (resazurin); type: cell-based; details: for EC50: Leishmania major, 144 h, read-out: L. major EC50
[4] = system: mouse peritoneal macrophages; experiment: Toxicity to mouse peritoneal macrophages (cell counts, Giemsa); type: cell-based, BALB/c mice; details: Peritoneal macrophage, 120 h, read-out: EC50 towards mouse peritoneal macrophages
[5] = system: ΔTbsnm1 Tbntr++ T. brucei; type: cell-based
[6] = system: T. cruzi epimastigotes; experiment: Growth inhibition of T. cruzi epimastigotes (resazurin); type: cell-based; details: for EC50: Trypanosoma cruzi, 336 h, read-out: T. cruzi EC50
[7] = system: T. brucei over expressing TbNTR (Tbntr++); experiment: microbe, parasite or virus in culture; type: cell-based; details: for EC50: Trypanosoma brucei, read-out: EC50 Tbntr++
[8] = system: bloodstream form T. brucei; experiment: Growth inhibition of wild type / control bloodstream form T. brucei (resazurin); type: cell-based
[9] = system: differentiated THP‐1 cells; experiment: Mammalian inhibition assay, differentiated THP-1 cells; type: cell-based; details: Homo sapiens, THP-1, 72 h, read-out: THP‐1 EC50
[10] = system: T. brucei over expressing TbCPR2 (Tbcpr2++); experiment: microbe, parasite or virus in culture; type: cell-based; details: for EC50: Trypanosoma brucei, read-out: EC50 Tbcpr2++
[11] = system: RH1^RC1 T. brucei; experiment: microbe, parasite or virus in culture; type: cell-based; details: for EC50: Trypanosoma brucei, read-out: EC50 RH1^RC1;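 on ratio (fold difference in EC50 between RH1^RC1 and wild type): resistant clone selected by stepwise exposure to the aziridinyl benzoquinone prodrug in culture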
[12] = Trypanosoma brucei, 72 h, read-out: T. brucei EC50
[13] = Trypanosoma brucei, read-out: EC50 Control
[14] = Trypanosoma brucei, 72 h, bloodstream form, 3 days, Table 1, activity of some compounds previously reported (Hall et al., 2012), read-out: T. brucei EC50
[15] = Trypanosoma brucei, read-out: EC50 Wild type

phleomycin [reference compound]
Cells in G1/S phase (1N1K) [1]: approximately 80%

O=C1C=C(N2CC2)C(=O)C(N2CC2)=C1N1CC1 [TZQ]
Ratio of EC50 values ΔTbsnm1 / control [2]: 0.18
Susceptibility of Tbsnm1 null mutants relative to wild type / control (fold more susceptible) [2]: 2.7 fold
EC50 [2]: 46 ± 1 nM
L. major SI [3]: <11
EC50 [4]: < 100 nM
Fold increase in susceptibility of ΔTbsnm1 Tbntr++ versus wild type [5]: 15 fold
T. cruzi SI [6]: <33
Fold difference in EC50 Tbntr++ relative to control [7]: 60 ± 9 (0.27 )
EC50 [7]: 60 nM
T. brucei SI [8]: <1
EC50 [8, 12]: 179 ± 1 nM
EC50 [8, 13]: 225 ± 26 nM
EC50 ([8]; read-out: EC50 Control): 253 ± 33 nM
EC50 [9]: < 100 nM
Fold difference in EC50 Tbcpr2++ relative to control [10]: 284 ± 13 (1.26)
EC50 [10]: 284 nM

O=C1C(F)=C(N2CC2)C(=O)C(F)=C1N1CC1 [ABQ4]
EC50 ([3]; promastigotes, 6 days): 663 ± 6 nM
EC50 ([6]; epimastigotes, 14 days): 106 ± 25 nM
EC50 [8, 14]: 1180 ± 160 nM

O=C(Cn1ccnc1[N+](=O)[O-])NCc1ccccc1 [benznidazole]
Susceptibility of RH1 selected (RH1^RC) lines relative to wild type [11]: cross‐resistance

C1CN1c1nc(N2CC2)nc(N2CC2)n1 [Triethylenemelamine]
ratio (fold difference in EC50 between RH1^RC1 and wild type) [11]: 1.1
EC50 [11]: 2770 ± 64 nM
EC50 [8, 15]: 2400 ± 86 nM

CC1(C)CN1C1=C(Br)C(=O)C(N2CC2(C)C)=C(Br)C1=O [ABQ26]
EC50 [3]: 2360 ± 230 nM
EC50 [6]: 8640 ± 736 nM
EC50 [8, 12]: > 10000 nM

CC1CN1C1=C(F)C(=O)C(N2CC2C)=C(F)C1=O (stereo not drawn) [ABQ29]
EC50 ([3]; promastigotes, 6 days): 175 ± 5 nM
EC50 ([6]; epimastigotes, 14 days): 975 ± 25 nM

CC1=C(N2CC2)C(=O)C(C)=C(N2CC2)C1=O [MeDZQ]
L. major SI [3]: 2
EC50 [3]: 560 ± 139 nM
T. cruzi SI [6]: 16
EC50 [6]: 55 ± 2 nM
Fold difference in EC50 Tbntr++ relative to control [7]: 115 ± 3 (0.16 )
EC50 [7]: 115 nM
T. brucei SI [8]: 1
EC50 [8, 12]: 698 ± 57 nM
EC50 [8, 13]: 740 ± 18 nM
EC50 [9]: 885 ± 23 nM

CCCOC1=C(N2CC2)C(=O)C(OCCC)=C(N2CC2)C1=O [ABQ8]
L. major SI [3]: 2
EC50 [3]: 1870 ± 184 nM
T. cruzi SI [6]: 2
EC50 [6]: 1300 ± 108 nM
T. brucei SI [8]: 4
EC50 [8, 12]: 670 ± 30 nM
EC50 [9]: 2950 ± 770 nM

CC1(C)CN1C1=C(F)C(=O)C(N2CC2(C)C)=C(F)C1=O [ABQ30]
L. major SI [3]: 22
EC50 [3]: 174 ± 10 nM
T. cruzi SI [6]: 4
EC50 [6]: 980 ± 25 nM
Fold difference in EC50 Tbntr++ relative to control [7]: 8670 ± 1670 (1.12)
EC50 [7]: 8670 nM
T. brucei SI [8]: <1
EC50 [8, 12]: 7400 ± 190 nM
EC50 [8, 13]: 7400 ± 190 nM
EC50 [9]: 3750 ± 320 nM

NCCCC(N)(C(=O)O)C(F)F (stereo not drawn) [DFMO, difluoromethylornithine, reference compound]
Ratio of EC50 values ΔTbsnm1 / control [2]: 0.99
Susceptibility of Tbsnm1 null mutants relative to wild type / control (fold more susceptible) [2]: no significant difference
EC50 [2]: 27100 ± 850 nM
ratio (fold difference in EC50 between RH1^RC1 and wild type) [11]: 1.3
EC50 [11]: 22200 ± 383 nM
Fold difference in EC50 Tbntr++ relative to control [7]: 30720 ± 1330 (1.12)
EC50 [7]: 30700 nM
EC50 ([8]; Trypanosoma brucei, Table 3, BSF T. brucei wild type, read-out: EC50 Wild type): 16800 ± 2690 nM
EC50 [8, 13]: 27500 ± 108 nM
Fold difference in EC50 Tbcpr2++ relative to control [10]: 33250 ± 5123 (1.21)
EC50 [10]: 33200 nM

CC1CN1C1=C(Br)C(=O)C(N2CC2C)=C(Br)C1=O (stereo not drawn) [ABQ25]
EC50 ([3]; promastigotes, 6 days): 80 ± 6 nM
L. major EC50 ([3]; promastigotes, 6 days): high potency
EC50 [8, 14]: > 10000 nM

N[C@@H](Cc1ccc(N(CCCl)CCCl)cc1)C(=O)O [Melphalan]
ratio (fold difference in EC50 between RH1^RC1 and wild type) [11]: 1.2
EC50 [11]: 10400 ± 230 nM
EC50 [8, 15]: 8740 ± 200 nM

NC(=O)c1cc(N2CC2)c([N+](=O)[O-])cc1[N+](=O)[O-] [CB1954, reference compound]
EC50 [11]: 13100 ± 972 nM
EC50 [8, 15]: 2160 ± 125 nM

CC(=O)NC1=C(N2CC2)C(=O)C(NC(C)=O)=C(N2CC2)C1=O [ABQ15]
EC50 [3]: > 10000 nM
EC50 [6]: 3310 ± 200 nM
EC50 [8, 12]: > 10000 nM
